Data: PubChem BioAssay AID179 (DTP/NCI, 2004)
The source made the active and inactive calls.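 Rule for the calls: active = compounds giving half or more protection of infected cells from virus-caused growth loss, again on retest; inactive = the rest.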

System: CEM cells HIV-1 protection, formazan growth assay
Assay: NCI AIDS Antiviral Assay
Conditions: for IC50: measured here: growth of uninfected CEM cells
Summary of the method: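 Protection of CEM cells against HIV-1 measured as cell growth via soluble formazan read-out, with five concentrations tested on both infected and uninfected cells; failure to protect may reflect toxicity.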

| Compound | EC50 [µM] | IC50 [µM] | outcome |
| --- | --- | --- | --- |
| O=C(Nc1ccc2c(O)cc(S(=O)(=O)O)cc2c1)Nc1ccc2c(O)cc(S(=O)(=O)O)cc2c1 | 64.6 | 155 | – |
| Cc1cc(C)nc(NS(=O)(=O)c2ccc(NNc3c4ccccc4nc4c(C(=O)Nc5ccc(S(=O)(=O)N=C(N)N)cc5)cccc34)cc2)n1 | > 200 | 31.6 | – |
| C1=CC(N(c2ccccc2)C2C=CCCC2)CCC1 (stereo unspecified) | – | – | inactive |
| C/C(=N\NC(=S)N(C)C)c1cccnn1 | > 200 | 0.355 | – |
| O=C(N/N=C/c1ccccc1S(=O)(=O)O)C(=O)N/N=C/c1ccccc1S(=O)(=O)O | > 200 | > 200 | – |
| CCc1ccc(N=Cc2cc(OC)c(OC)c(OC)c2)cc1 | > 33.1 | > 33.1 | – |
| COc1cc(C2OC(N)=C(C#N)C3=C2C(C)CCC3)cc(OC)c1OC (stereo unspecified) | – | – | inactive |
| O=C1NC(=O)C(CCC(=O)c2ccc3ccccc3c2)C(=O)N1 | > 110 | > 110 | – |
| Cc1cc2c(c(C(=O)NCCC(=O)N[C@@H](C)C(=O)OCc3ccccc3)c1)Oc1c(cc(C)cc1C(=O)NCCC(=O)N[C@@H](C)C(=O)OCc1ccccc1)S2 | > 200 | > 200 | – |
| COc1ccc(N2C(=O)CSC2c2c[nH]c3ccccc23)cc1 (stereo unspecified) | > 22.4 | > 22.4 | – |
| C[N+](C)(C)CCNP(=O)(Oc1ccccc1)c1ccccc1 (stereo unspecified) | > 562 | > 562 | – |
| CC(C)O/C=C1\CCc2ccccc2C1=O | > 200 | 36.3 | – |
| O=S(=O)(O)CC(O)CNC(CO)(CO)CO (stereo unspecified) | > 200 | > 200 | – |
| O=c1c(-c2ccc(O)cc2)coc2c(C3OC(CO)C(O)C(O)C3O)c(O)ccc12 (stereo unspecified) | > 200 | > 200 | – |
| Cc1nc2ccc(Cl)cc2c(-n2ccnc2)c1CCn1ccnc1 | > 200 | 89.1 | – |
| Cc1ccc(NC(=O)OCC(COc2ccc(Cl)cc2Cl)OC(=O)Nc2ccc(C)cc2)cc1 (stereo unspecified) | > 2.88 | > 2.88 | – |
| CC(=O)Nc1ccc(Nc2cc(=O)n(C)c(=O)[nH]2)cc1 | > 200 | > 200 | – |
| CCCCCCCCCC=C(c1cc(Br)cc(C(=O)O)c1O)c1cc(Br)cc(C(=O)O)c1O | > 22.9 | > 22.9 | – |
| O=[N+]([O-])c1nccn1CC(O)c1ccc(F)cc1 (stereo unspecified) | > 1000 | > 1000 | – |
| Cc1ccc(C(=O)c2ccccc2)c(C(=O)O)c1 | > 200 | > 200 | – |

| Compound | EC50 [µM] | IC50 [µM] | outcome |
| --- | --- | --- | --- |
| COc1cc(C2c3cc4c(cc3OC(NNS(=O)(=O)c3ccc(C)cc3)C2C)OCO4)cc(OC)c1OC (stereo unspecified) | > 20 | 0.372 | – |
| CC(C)(C)c1cc2c(O)c(c1)Cc1cc(C(C)(C)C)cc(c1O)Cc1cc(C(C)(C)C)cc(c1O)Cc1cc(C(C)(C)C)cc(c1O)C2 | > 77.6 | > 77.6 | – |
| COCCCCCCCCCCCC(=O)OCC1OC(n2cc(C)c(=O)[nH]c2=O)CC1F (stereo unspecified) | 0.0112 | 0.2 | – |
| CCOC(=O)c1c2ccccc2n2c(=O)n(-c3ccc(OC)cc3)nnc12 | > 57.5 | 32.4 | – |
| C[C@H](C(=O)O)C(=O)NC(=O)N(Cc1ccccc1)N=O | – | – | inactive |
| C/C=C1\CN(C)C[C@@]2(C(=O)OC)Cc3c(n(OC)c4ccccc34)C(=O)C[C@@H]12 | > 135 | 97.7 | – |
| C1C2CC3CC1CC(Nc1nc(NC45CC6CC(CC(C6)C4)C5)nc(NC45CC6CC(CC(C6)C4)C5)n1)(C2)C3 | > 200 | 41.7 | – |
| CCOP(=O)(OCC)/C(C#N)=C/c1ccccn1 | 148 | > 200 | – |
| CC(=O)CC(=O)Nc1ccccc1.CC(=O)CC(=O)Nc1ccccc1.[Cu] | > 200 | 17.4 | – |
| CCCCCCC(O)CCCC(O)C1CCC(C2CCC(C(O)CCCCCCCCCCCCC3=CC(C)OC3=O)O2)O1 (stereo unspecified) | – | – | inactive |
| COC(=O)C1C(=O)C(C(=O)OC)C2(C)C(C(=O)OC)C(=O)C(C(=O)OC)C12C (stereo unspecified) | > 89.1 | 81.3 | – |
| CNC(=O)CNC(=O)CCC(=O)OC | > 200 | > 200 | – |
| O=C(CC(=O)n1nc(-c2ccccc2)c(N=Nc2ccc(Cl)cc2)c1-c1ccccc1)Nc1ccc(Cl)cc1 | > 18.2 | > 18.2 | – |
| O=C(Nc1ccc(-c2ccco2)oc1=O)c1ccccc1 | > 200 | > 200 | – |
| COC(=O)[C@@H]1COC(CC/C(C)=C/c2ccccc2)=N1 | > 200 | 44.7 | – |
| CC(=O)c1ccc2c3c(ccc([N+](=O)[O-])c13)C(=O)OC2=O | > 200 | 30.9 | – |
| CCOC(OCC)/C(C)=N/[N+](C)(C)C | > 200 | > 200 | – |
| Cn1c2c(c3ccccc31)C(=O)CC2(C)C | > 123 | 66.1 | – |
| CCOC(=O)c1cc2c(nc1NCc1ccc(OC)c(OC)c1)/C(=C/c1ccccc1)CCCC2 | > 200 | 10.2 | – |
| CC(C)Oc1cc2c(c3oc(=O)c4c(c13)CCC4)C(=O)[C@H](C)[C@@H](C)O2 | > 200 | 39.8 | – |

| Compound | EC50 [µM] | IC50 [µM] | outcome |
| --- | --- | --- | --- |
| COC1C(O)C(C)OC(OC2C(Oc3cccc4c(O)c5c(=O)oc6ccc(C)c7c(=O)oc(c34)c5c67)OC(C)C3O[C@H](c4ccccc4)OC32)C1O (stereo partly specified) | > 7.24 | 0.0912 | – |
| O=C1/C(=C/c2ccccc2)CC/C1=C\c1ccccc1 | – | – | inactive |
| CC(=O)OCC12C(OC(C)=O)C[C@@H](C)C3(CC(c4ccoc4)OC3=O)C1CCC(O)C21CO1 (stereo partly specified) | > 200 | > 200 | – |
| CC/C=C\C/C=C\C/C=C\C/C=C\CCC(=O)OC(COC(=O)CCCCCCC/C=C\C/C=C\C/C=C\CC)COC1OC(CO)C(O)C(O)C1O (stereo unspecified) | > 38 | > 38 | – |
| COc1ccc(/C=C(\C#N)c2nc(-c3cc4ccccc4oc3=O)cs2)cc1 | 162 | > 200 | – |
| Nc1ccccc1SSc1ccccc1C(=O)O | 35.5 | 41.7 | – |
| CC(C)CCCC(C)[C@H]1CC[C@H]2[C@@H]3CC[C@H]4C[C@@H](CCC=C(c5cc(Cl)c(OCc6cccc(B(O)O)c6)c(C(=O)O)c5)c5cc(Cl)c(OCc6cccc(B(O)O)c6)c(C(=O)O)c5)CC[C@]4(C)[C@H]3CC[C@]12C (stereo partly specified) | 138 | > 200 | – |
| Nc1ccc(C(=O)N/C(=C\c2cccc([N+](=O)[O-])c2)c2nc3c4c(ccc3[nH]2)C(=O)c2ccccc2C4=O)cc1 | – | – | inactive |
| COc1cc(O)c2c(c1)C(=O)C1=C(C2=O)C(O)C[C@@](C)(O)C1 (stereo partly specified) | – | – | inactive |
| COc1ccc(-n2nc(C)ccc2=O)cc1 | > 1150 | 776 | – |
| Nc1nccc2c1ncn2C1C=C(CO)C(O)C1O (stereo unspecified) | > 832 | 0.324 | – |
| COc1nc(N)c(N(C(C)=O)C(C)=O)c(=O)[nH]1 | – | – | inactive |
| COc1cc(/C=C/C=C2\CC/C(=C\C=C\c3ccc(O)c(OC)c3)C2=O)ccc1O | > 200 | 13.2 | – |
| COc1ccc(C(=O)C[P+](c2ccccc2)(c2ccccc2)c2ccccc2)cc1 | > 200 | 33.9 | – |
| Nn1nnc2ccccc21 | > 200 | > 200 | – |
| N#Cc1ccc(/C=C(/C(=O)c2ccccc2)c2ccccc2)cc1 | > 17 | 9.55 | – |
| CCO/C=C/C=C(C(=O)OCC)C(=O)OCC | > 148 | > 148 | – |
| CN(C)CCNC(=O)c1ccc(Cl)c2c(Nc3ccc(S(N)(=O)=O)cc3)c3ccccc3nc12 | – | – | inactive |
| CC1=C(C(=O)Nc2cc(F)c(F)cc2F)C(c2cccc([N+](=O)[O-])c2)C(C(=O)Nc2ccccc2C(F)(F)F)=C(C)N1 (stereo unspecified) | > 43.7 | > 43.7 | – |
| [N-]=[N+]=NCCCCCCCCCCCC(=O)O | > 200 | 81.3 | – |
